PubChem BioAssay AID330 (DTP/NCI, 2004)
Values joined by “and” are separate entries in the source; they are usually repeats but may differ in a detail not shown here. Equal values may be shown once. Toxic doses and inconclusive results are not listed. Rule for the calls: active = survival T/C of 150% or more; inactive = T/C below 125% in these data. Square brackets hold non-standard residues; d marks the D form. Peptide text beside a SMILES is read from it. * marks the point of attachment. ξ: configuration not given here. Boc = CC(C)(C)OC(=O)*; ξP = O=C(O)C1CCCN1

Tested on: P388 leukemia ip, CD2F1 mice, survival T/C
Assay: NCI In Vivo Anticancer Drug Screen. Data for tumor model P388 Leukemia (intraperitoneal) in CD2F1 (CDF1) mice
Details: endpoint: median survival time, higher = longer survival
Outline: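 Mice carrying the transplanted tumor received test compound or vehicle. Survival was recorded in each group, and the value is the treated-group measurement divided by that of the vehicle-treated control group.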

[1] = dose: 50.0 mg/kg/injection, schedule: Q01DX005 (ip), vehicle: saline with Tween-80
[2] = dose: 100.0 mg/kg/injection, schedule: Q01DX005 (ip), vehicle: saline with Tween-80
[3] = dose: 200.0 mg/kg/injection, schedule: Q01DX005 (ip), vehicle: saline with Tween-80
[4] = dose: 50.0 mg/kg/injection, schedule: Q01DX009 (ip), vehicle: saline with Tween-80
[5] = dose: 100.0 mg/kg/injection, schedule: Q01DX009 (ip), vehicle: saline with Tween-80
[6] = dose: 200.0 mg/kg/injection, schedule: Q01DX009 (ip), vehicle: saline with Tween-80
[7] = dose: 100.0 mg/kg/injection, schedule: Q01DX001 (ip), vehicle: saline with Tween-80
[8] = dose: 200.0 mg/kg/injection, schedule: Q01DX001 (ip), vehicle: saline with Tween-80
[9] = dose: 400.0 mg/kg/injection, schedule: Q01DX001 (ip), vehicle: saline with Tween-80
[10] = dose: 50.0 mg/kg/injection, schedule: Q01DX009 (ip), vehicle: saline
[11] = dose: 100.0 mg/kg/injection, schedule: Q01DX009 (ip), vehicle: saline
[12] = dose: 200.0 mg/kg/injection, schedule: Q01DX009 (ip), vehicle: saline
[13] = dose: 50.0 mg/kg/injection, schedule: Q01DX009 (ip), vehicle: Klucel (hydroxypropylcellulose) (HPC)
[14] = dose: 100.0 mg/kg/injection, schedule: Q01DX009 (ip), vehicle: Klucel (hydroxypropylcellulose) (HPC)
[15] = dose: 200.0 mg/kg/injection, schedule: Q01DX009 (ip), vehicle: Klucel (hydroxypropylcellulose) (HPC)
[16] = dose: 100.0 mg/kg/injection, schedule: Q04DX003 (ip), vehicle: saline with Tween-80
[17] = dose: 200.0 mg/kg/injection, schedule: Q04DX003 (ip), vehicle: saline with Tween-80
[18] = dose: 50.0 mg/kg/injection, schedule: Q01DX005 (ip), vehicle: Klucel (hydroxypropylcellulose) (HPC)
[19] = dose: 100.0 mg/kg/injection, schedule: Q01DX005 (ip), vehicle: Klucel (hydroxypropylcellulose) (HPC)
[20] = dose: 200.0 mg/kg/injection, schedule: Q01DX005 (ip), vehicle: Klucel (hydroxypropylcellulose) (HPC)

Measured: T/C

c1ccc(C(c2ccccc2)c2cc(-c3cc(C(c4ccccc4)c4ccccc4)[nH]n3)n[nH]2)cc1
inactive: dose: 60.0 mg/kg/injection, schedule: Q01DX005 (ip), vehicle: distilled water + Tween-80 97 % of control | dose: 120.0 mg/kg/injection, schedule: Q01DX005 (ip), vehicle: distilled water + Tween-80 102 % of control | dose: 240.0 mg/kg/injection, schedule: Q01DX005 (ip), vehicle: distilled water + Tween-80 102 % of control

COc1cccc(/C(C#N)=N/NC(=O)c2nc[nH]c2C)c1
inactive: dose: 1.56 mg/kg/injection, schedule: Q01DX005 (ip), vehicle: saline with Tween-80 93 % of control | dose: 3.12 mg/kg/injection, schedule: Q01DX005 (ip), vehicle: saline with Tween-80 94 % of control | dose: 6.25 mg/kg/injection, schedule: Q01DX005 (ip), vehicle: saline with Tween-80 95 % of control | dose: 12.5 mg/kg/injection, schedule: Q01DX005 (ip), vehicle: saline with Tween-80 93 % of control | [1] 86 % of control | [2] 87 % of control | [3] 100 % of control

N#Cc1c(C#N)c(O)c2c(N)cccc2c1O
inactive: dose: 100.0 mg/kg/injection, schedule: Q04DX002 (ip), vehicle: saline with Tween-80 105 % of control | dose: 200.0 mg/kg/injection, schedule: Q04DX002 (ip), vehicle: saline with Tween-80 108 % of control

OC1C=CC2CCC1C2 (stereo not given)
inactive: [4] 107 % of control | [5] 114 % of control | [6] 115 % of control

O=c1c(N=Nc2ccc(Br)cc2)c(O)n(-c2ccc(Cl)cc2)c(=S)n1-c1ccc(Br)cc1
inactive: [7] 96 % of control | [8] 95 % of control | [9] 89 % of control

Cc1ccc(N)c(C(=O)Nc2ccc(Br)cc2)c1
inactive: [1] 101 % of control | [2] 101 % of control | [3] 95 % of control

COC(=O)C1CCCN1C(=O)CNC(=O)OC(C)(C)C (stereo not drawn) (Boc-Gly-[ξP]-OMe)
inactive: [10] 105 % of control | [11] 99 % of control | [12] 99 % of control | dose: 400.0 mg/kg/injection, schedule: Q01DX009 (ip), vehicle: saline 90 % of control

CC(C)(C)/C(=N\NC(=O)CCCl)c1ccccc1
inactive: [4] 97 % of control | [5] 97 % of control | [6] 95 % of control

NC(=Nc1ccccc1)N(c1ccccc1)c1ccc([N+](=O)[O-])cc1
inactive: dose: 7.5 mg/kg/injection, schedule: Q01DX009 (ip), vehicle: saline with Tween-80 92 % of control | dose: 15.0 mg/kg/injection, schedule: Q01DX009 (ip), vehicle: saline with Tween-80 100 % of control | dose: 30.0 mg/kg/injection, schedule: Q01DX009 (ip), vehicle: saline with Tween-80 91 % of control

O=C1NC(=S)NNC12CCCCC2
inactive: dose: 25.0 mg/kg/injection, schedule: Q01DX009 (ip), vehicle: Klucel (hydroxypropylcellulose) (HPC) 101 % of control | [13] 101 % of control and 108 % of control | [14] 112 % of control and 97 % of control | [15] 105 % of control (2×) and 113 % of control

Cc1nc2[nH]c(=O)[nH]c(=O)c2[nH]1
inactive: [16] 100 % of control | [17] 113 % of control

CN(C)C(=S)C(O)(c1ccccc1)c1ccccc1
inactive: [13] 90 % of control | [14] 100 % of control | [15] 97 % of control

CC(=O)OCC1OC(n2cc(F)c(=O)[nH]c2=O)CC1OC(C)=O (stereo not given)
inactive: [4] 100 % of control | [5] 118 % of control | [6] 86 % of control

CC(C)=CCC/C(C)=C/CC1=C(O)c2ccccc2C(=O)C1=O
inactive: dose: 1.56 mg/kg/injection, schedule: Q01DX009 (ip), vehicle: saline 98 % of control | dose: 3.12 mg/kg/injection, schedule: Q01DX009 (ip), vehicle: saline 100 % of control | dose: 6.25 mg/kg/injection, schedule: Q01DX009 (ip), vehicle: saline 100 % of control | dose: 12.5 mg/kg/injection, schedule: Q01DX009 (ip), vehicle: saline 104 % of control and 94 % of control

NC(=O)c1[nH]ncc1C1OCCC1O (stereo not given)
inactive: [7] 100 % of control | [8] 100 % of control | [9] 100 % of control

CC(=O)c1ccc(C(C)=O)cc1
inactive: [10] 101 % of control | [11] 95 % of control | [12] 109 % of control

CC(C)(C)c1cc(C(C)(C)C)c(=O)oc(=O)c1
inactive: [18] 98 % of control | [19] 98 % of control

Cn1nc(N)c2ncc(-c3ccc(Cl)cc3)nc21
inactive: [16] 90 % of control | [17] 95 % of control

Cc1ccc2nc3[nH]c(=O)[nH]c(=O)c3c(C(N)=O)c2c1
inactive: [18] 100 % of control | [19] 94 % of control | [20] 94 % of control

Cc1nc2nnc(N)n2nc1C
inactive: dose: 100.0 mg/kg/injection, schedule: Q04DX003 (ip), vehicle: Klucel (hydroxypropylcellulose) (HPC) 106 % of control | dose: 200.0 mg/kg/injection, schedule: Q04DX003 (ip), vehicle: Klucel (hydroxypropylcellulose) (HPC) 97 % of control | dose: 400.0 mg/kg/injection, schedule: Q04DX003 (ip), vehicle: Klucel (hydroxypropylcellulose) (HPC) 96 % of control

Cc1c(Cl)c(O)cc2oc3cc(O)cc(O)c3c(=O)c12
inactive: dose: 10.0 mg/kg/injection, schedule: Q04DX003 (ip), vehicle: Klucel (hydroxypropylcellulose) (HPC) 105 % of control | dose: 20.0 mg/kg/injection, schedule: Q04DX003 (ip), vehicle: Klucel (hydroxypropylcellulose) (HPC) 102 % of control | dose: 40.0 mg/kg/injection, schedule: Q04DX003 (ip), vehicle: Klucel (hydroxypropylcellulose) (HPC) 105 % of control

OCC(O)C(O)C(O)C(O)C(O)c1nc2ccccc2[nH]1 (stereo not given)
inactive: [18] 98 % of control | [19] 102 % of control | [20] 100 % of control

Clc1ccccc1C(Nc1cnccn1)Nc1cnccn1
inactive: [1] 120 % of control | [2] 114 % of control | [3] 110 % of control | dose: 400.0 mg/kg/injection, schedule: Q01DX005 (ip), vehicle: saline with Tween-80 121 % of control

N=C(N)c1ccc(N=Nc2c(O)ccc3cc4c(N=Nc5ccc(C(=N)N)cc5)c(O)ccc4cc23)cc1
inactive: [18] 110 % of control | [19] 111 % of control | [20] 110 % of control

Cc1ccc2c(c1)C(O)(CC(=O)c1ccccn1)C(=O)N2 (stereo not given)
inactive: dose: 60.0 mg/kg/injection, schedule: Q01DX005 (ip), vehicle: Klucel (hydroxypropylcellulose) (HPC) 104 % of control | dose: 120.0 mg/kg/injection, schedule: Q01DX005 (ip), vehicle: Klucel (hydroxypropylcellulose) (HPC) 97 % of control | dose: 240.0 mg/kg/injection, schedule: Q01DX005 (ip), vehicle: Klucel (hydroxypropylcellulose) (HPC) 104 % of control

CCN(CC)Cc1cc(Nc2c3ccc([N+](=O)[O-])cc3nc3ccc(OC)cc23)ccc1O
inactive: dose: 50.0 mg/kg/injection, schedule: Q01DX005 (ip), vehicle: saline 99 % of control | dose: 100.0 mg/kg/injection, schedule: Q01DX005 (ip), vehicle: saline 103 % of control | dose: 200.0 mg/kg/injection, schedule: Q01DX005 (ip), vehicle: saline 101 % of control

CCCn1c(Cl)c(/C=N\Nc2ccc([N+](=O)[O-])cc2)c2ccccc21
inactive: [7] 103 % of control | [8] 95 % of control | [9] 95 % of control
